Reference: article PMC9227096, “Design, Synthesis, and In Vitro, In Silico and In Cellulo Evaluation of New Pyrimidine and Pyridine Amide and Carbamate Derivatives as Multi-Functional Cholinesterase Inhibitors” (Pharmaceuticals, 2022)
Read-outs that look alike come from different tables or passages of the source.

Columns and labels:
[1] = target: T1, Electrophorus electricus AChE (EeAChE) (Electrophorus electricus, UniProt O42275); assay: Ellman's spectrophotometric method, percent inhibition of EeAChE (zero time and after 1 h incubation); type: biochemical
T1 construct: purchased Sigma-Aldrich (Milan, Italy)
Experimental: Regarding the synthesized compounds enzymatic inhibition studies were carried out on Electrophorus electricus AChE (EeAChE) and equine BChE (eqBChE), according to Ellman’s spectrophotometric method.
All other chemical and biological reagents and solvents used were of the highest analytical, commercially available grade. The water, utilized for the preparation of the phosphate buffer and of the solutions of compounds, was distilled and filtered on nylon membrane filters with 0.2 μm pore size with the Millipore® Filtration apparatus before each use. Micropipettes Labmate (BRAND Dig. 10–100 μL; Dig. 100–1000 μL; Dig. 0.1–2 μL) and Transferpette (HIGH TECH LAB LM200: 20–200 μL; LM5000: 1000–5000 μL) were used to collect the samples. The assays were carried out by double beam UV–Vis Lambda 40 Perkin Elmer spectrophotometer, using optical polystyrene cuvettes (10 × 10 × 45 mm, 340–800 nm optical transparency), each measure was repeated at least in triplicate. […] Vivaspin® 2 Sartorius, with a membrane of 3000 MWCO (molecular weight cutoff) consisting of polyethersulfone (PES), cellulose triacetate (CTA) and hydrosart, was used for the ultrafiltration procedures. An ALC PK110 bench-top centrifuge was used for centrifugation. The spectrophotometric method of Ellman, with minor modifications, was used to evaluate the inhibition of cholinesterase enzymes. […] EeAChE and eqBChE were periodically tested to evaluate the effective enzymatic activity.
An amount of 3.0 mL of a solution in 0.1 M phosphate buffer (pH = 7.4) containing DTNB (0.25 mM) and EeAChE (0.083 UmL^−1) or eqBChE (0.083 UmL^−1) were placed in a polystyrene cuvette of 1.0 cm path length; 1 µL of a solution in DMSO of the tested compound was added to obtain in cuvette concentration range 9 µM–0.09 µM. With this solution the blank was made.
Each experiment was repeated at least in triplicate.
The cuvettes were prepared consecutively at intervals of 3 min to allow equal incubation times.

Aβ42 peptide = target: T2, Aβ42 peptide (Homo sapiens, UniProt P05067); assay: Inhibition of Aβ42 aggregation in intact E. coli cells, thioflavin-S staining; type: cell-based, Escherichia coli; settings: [I] = 100 µM, E. coli cells overexpressing Aβ42
T2 construct: expressed in transfected cells; host or cells: E. coli BL21 (DE3), pET28a vector
Experimental: For compounds 12, 14 and 18, the inhibitory activity against Aβ42 and tau aggregation was evaluated. The anti-aggregating effect of tested compounds was monitored by a cell-based assay in intact Escherichia coli cells that overexpress either Aβ42 peptide or tau protein, which, upon expression, form insoluble inclusion bodies that were stained with thioflavin-S [42]. The percentages of inhibition towards Aβ42 and tau aggregation were determined at an inhibitor concentration of 100 µM and the obtained results are reported in Table 6. In general, these compounds show a weak anti-aggregating activity; among these, the pyridine carbamate 18 is the best inhibitor of aggregation of both Aβ42 and tau.
E. coli competent cells BL21 (DE3) were transformed with the pET28a vector (Novagen, Inc., Madison, WI, USA) carrying the DNA sequence of Aβ42. Because of the addition of the initiation codon ATG in front of both genes, the overexpressed peptide contains an additional methionine residue at its N terminus. For overnight culture preparation, an amount of 10 mL of the M9 minimal medium containing 50 μg·mL^−1 of kanamycin was inoculated with a colony of BL21 (DE3) bearing the plasmid to be expressed at 37 °C. […]
Th-S (T1892) and other chemical reagents were purchased from Sigma (St. Louis, MO, USA). […] Th-S fluorescence and absorbance were tracked using a DTX 800 plate reader Multimode Detector equipped with a Multimode Analysis Software (Beckman-Coulter, Indianapolis, IN, USA). […] A filter of 535/25 nm was also used for the absorbance determination. To normalize the Th-S fluorescence as a function of the bacterial concentration, OD600 was obtained using a Shimadzu UV-2401 PC UV–Vis spectrophotometer (Shimadzu, Japan). Note that the fluorescence normalisation was carried out considering 100% of the Th-S fluorescence of the bacterial cells expressing the peptide or protein in the absence of the drug and 0% of the Th-S fluorescence of the bacterial cells not expressing the peptide or protein. […]

[2] = read-out: % Inhibition vs. EeAChE ± SD, [I] 9 µM, 0.0833 U/mL enzyme, 100 µM acetylthiocholine

T2 sequence (P05067 672-713 limits assumed): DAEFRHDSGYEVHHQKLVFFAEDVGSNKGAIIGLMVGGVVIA
T1 sequence (O42275 24-633): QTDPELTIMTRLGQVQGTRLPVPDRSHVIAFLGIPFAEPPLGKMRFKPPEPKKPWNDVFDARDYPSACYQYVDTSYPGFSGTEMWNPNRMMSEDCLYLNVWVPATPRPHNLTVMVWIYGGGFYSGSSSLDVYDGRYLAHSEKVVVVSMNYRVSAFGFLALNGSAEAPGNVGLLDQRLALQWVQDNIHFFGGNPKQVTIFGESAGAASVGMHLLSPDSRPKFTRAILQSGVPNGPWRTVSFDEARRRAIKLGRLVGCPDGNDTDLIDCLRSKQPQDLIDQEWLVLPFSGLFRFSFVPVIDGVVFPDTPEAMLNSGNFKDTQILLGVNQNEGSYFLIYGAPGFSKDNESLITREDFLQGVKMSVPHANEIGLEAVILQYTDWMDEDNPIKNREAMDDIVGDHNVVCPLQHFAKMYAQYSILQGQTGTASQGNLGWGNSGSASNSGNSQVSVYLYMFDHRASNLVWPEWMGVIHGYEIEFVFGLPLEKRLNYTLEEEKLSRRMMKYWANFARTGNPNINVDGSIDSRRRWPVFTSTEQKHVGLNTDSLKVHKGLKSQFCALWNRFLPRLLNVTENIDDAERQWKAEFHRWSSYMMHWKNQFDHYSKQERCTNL

Row | Compound | inhibition at 9 µM [1, 2] [%] | inhibition at 100 µM (Aβ42 peptide) [%] | inhibition at 9 µM ([1]; 1 h, read-out: % Inhibition vs. EeAChE ± SD, [I] = 9 µM, t = 1 h incubation at 25 °C) [%] | % Inhibition vs. EeAChE ± SD ([1]; [I] 9 µM, 0.0833 U/mL enzyme, 100 µM acetylthiocholine) [%]
1 | O=C(Cc1ccc(Oc2ccccc2)cc1)NCCCCCCNc1ccccn1 [Compound 14, 2-(4-phenoxyphenyl)-N-(6-(pyridin-2-ylamino)hexyl)acetamide] | 42.6 ± 1.4 | 13.3 |  | 
2 | O=C(NCCCCCCNc1ccccn1)Oc1ccccc1 [Compound 18, Phenyl (6-(pyridin-2-ylamino)hexyl)carbamate] |  | 23.1 | 41.6 ± 0.7 | 
3 | O=C(NCCCCCCNc1ccccn1)c1ccccc1 [Compound 12, N-(6-(pyridin-2-ylamino)hexyl)benzamide] | 34 | 11.9 |  | 34.0 ± 2.1
